System: traumatic edema
Experiment: Topical application of GTN to traumatic edema, general observation
Type: in vivo
From the text: The detumescence of the swelling associated with a traumatic edema is accelerated; instead of darkening of the skin, the healing occurs with a green, followed by a yellow, coloration of the affected skin area.

Q: Which “typical swelling and darkening of the affected skin sites” value (1.2 to 6 mg GTN on day of injury, then 0.8 to 1.6 mg GTN daily, topical) does the source give for O=[N+]([O-])OCC(CO[N+](=O)[O-])O[N+](=O)[O-] [GTN, glyceryl trinitrate] here?
A: reduces and/or prevents

Q: And the individual healing phases (compared to an untreated edema)?
A: significantly shortened

Q: And the “reduction of overall healing period for the treated edemas” value (compared to an untreated edema)?
A: one-half

Q: What about the “healing of traumatic edema” value (topically applied) of the same molecule?
A: greatly accelerates
